Laboratory results: publication PMC7558026, “Exploring and applying the substrate promiscuity of a C-glycosyltransferase in the chemo-enzymatic synthesis of bioactive C-glycosides” (Nature Communications, 2020)
Where “and” joins values, the source holds several entries; their conditions need not be identical. Identical values can stand only once. Each block holds one molecule with its values, some of them ahead of it.

How the values were obtained:
alloxan-induced DM mice = experiment: Hypoglycemic effect in alloxan-induced diabetic mellitus (DM) mice; assay type: in vivo; details: individual mice
Experimental: Type 1 diabetes mellitus (T1DM) mice were established by intravenous injection of alloxan tetrahydrate (68 mg kg^‒1 BW). […] Nonfasting blood glucose was kinetically monitored at 1, 2, 4, 6, 8, 24, and 48 h after treatment with 46a.

KKAy mice [1] = experiment: Hypoglycemic effect in T2DM KKAy mice, blood glucose; assay type: in vivo; details: individual mice
Experimental: (§1) To evaluate the hypoglycemic effect of 46a in type 2 diabetes mellitus (T2DM), female KKAy mice weighing 42–48 g were obtained from the Animal Center of the Institute of Laboratory Animal Sciences, Chinese Academy of Medical Sciences and Peking Union Medical College. […] Blood samples were collected at 1, 2, 4, 6, 8, 24, and 48 h after treatment. […] The glucose levels in urine 4 h and 6 h after administration were also determined using a Biosen C-Line Glucose analyzer (EKF Diagnostics, Germany).

SGLT1 = target: T1, SGLT1 (Homo sapiens, UniProt P13866); experiment: 1-NBDG uptake in HEK293 cells stably expressing SGLT1; assay type: cell-based; details: HEK293, compound at 10 μM; triplicate; read-out: SGLT1 inhibitory rates
T1 construct: The full-length SGLT1 cDNA was obtained by PCR with forward primer; expressed in transfected cells
T1 sequence (P13866 1-664): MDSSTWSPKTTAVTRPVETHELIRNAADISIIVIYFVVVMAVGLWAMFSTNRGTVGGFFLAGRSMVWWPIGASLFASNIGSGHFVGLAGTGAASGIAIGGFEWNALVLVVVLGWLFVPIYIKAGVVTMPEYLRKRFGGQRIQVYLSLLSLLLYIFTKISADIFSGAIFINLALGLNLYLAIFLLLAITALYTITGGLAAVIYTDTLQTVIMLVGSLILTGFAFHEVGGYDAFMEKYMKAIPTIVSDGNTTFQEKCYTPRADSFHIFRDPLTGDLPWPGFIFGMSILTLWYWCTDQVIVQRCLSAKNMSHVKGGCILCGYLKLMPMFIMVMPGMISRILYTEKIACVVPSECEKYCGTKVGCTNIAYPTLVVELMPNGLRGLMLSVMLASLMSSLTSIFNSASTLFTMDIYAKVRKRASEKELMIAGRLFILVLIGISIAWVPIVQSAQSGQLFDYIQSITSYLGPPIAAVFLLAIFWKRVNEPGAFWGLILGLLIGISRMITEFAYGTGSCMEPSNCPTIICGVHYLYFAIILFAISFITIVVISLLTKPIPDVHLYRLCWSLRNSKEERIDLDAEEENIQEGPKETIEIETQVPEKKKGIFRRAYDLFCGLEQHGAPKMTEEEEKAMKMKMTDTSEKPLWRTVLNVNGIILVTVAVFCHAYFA

KKAy mice [2] = experiment: Urinary glucose excretion in T2DM KKAy mice; assay type: in vivo; details: 46a 100 mg kg^‒1 or dapagliflozin 5mg/kg, individual mice
Experimental: as §1

SGLT2 = target: T2, SGLT2 (Homo sapiens, UniProt P31639); experiment: 1-NBDG uptake in HEK293 cells stably expressing SGLT2; assay type: cell-based; details: triplicate
T2 construct: Human full-length SGLT2 cDNA (NM_003041.3) was synthesized; expressed in transfected cells; host or cells: HEK293, retroviral transduction with pMSCVpuro-SGLT2, puromycin selected
T2 sequence (P31639 1-672): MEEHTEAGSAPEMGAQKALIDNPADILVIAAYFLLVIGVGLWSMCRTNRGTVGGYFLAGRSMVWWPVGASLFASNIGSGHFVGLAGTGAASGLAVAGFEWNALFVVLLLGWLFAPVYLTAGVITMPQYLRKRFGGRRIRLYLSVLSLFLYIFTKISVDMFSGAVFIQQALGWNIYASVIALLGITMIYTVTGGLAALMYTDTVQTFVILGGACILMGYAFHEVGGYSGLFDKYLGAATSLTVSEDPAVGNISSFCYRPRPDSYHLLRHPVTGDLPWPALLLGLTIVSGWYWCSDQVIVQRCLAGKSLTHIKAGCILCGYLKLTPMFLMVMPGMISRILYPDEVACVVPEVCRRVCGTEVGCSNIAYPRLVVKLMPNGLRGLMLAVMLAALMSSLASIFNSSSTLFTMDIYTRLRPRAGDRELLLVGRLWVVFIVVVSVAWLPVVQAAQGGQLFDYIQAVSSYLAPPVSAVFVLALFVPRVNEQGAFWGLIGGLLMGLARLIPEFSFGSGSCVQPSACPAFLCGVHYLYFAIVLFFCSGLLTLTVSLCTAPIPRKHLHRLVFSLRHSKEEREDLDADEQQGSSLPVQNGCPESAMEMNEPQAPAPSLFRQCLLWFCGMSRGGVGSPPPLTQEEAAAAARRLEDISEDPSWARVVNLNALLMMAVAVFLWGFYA

ICR mice = experiment: Oral glucose-tolerance test (OGTT) in normal ICR mice; assay type: in vivo; details: individual mice
Experimental: The hypoglycemic effect of 46a was firstly evaluated by oral glucose-tolerance test (OGTT) in mice with normal blood glucose levels. Male Institute of Cancer Research (ICR) mice weighing 24–26 g were obtained from Beijing Vital River Laboratory Animal Technology Co., Ltd (Beijing, China) and divided into three groups (n = 7–8). […] After 2 h of fasting, blood samples were collected from the tails for determination of baseline values of blood glucose (0 min). The mice were then orally administered glucose (2 g kg^‒1 BW), and blood samples were collected at 15, 30, 60, and 120 min. A glucose oxidase (GOD) assay was used for blood glucose-level measurement. The values of area under the glucose-time curve (AUC) were calculated.

[3] = substrate: O=C1C[C@@](O)(c2ccc(O)cc2)Oc2cc(O)cc(O)c21; experiment: Kinetic parameters of AbCGT variant V183E; assay type: biochemical, Aloe barbadensis; details: other: V183E, UDP-Glc as donor; pH 7.4; 30.0 °C
Experimental: (§2) Assays were performed in a final volume of 100 μL 50 mM Tris-HCl (pH 7.4) at 30 °C, and contained purified recombinant AbCGT (1.5 μg) and saturating UDP-Glc (5 mM) while varying phloracetophene (11) and phloretin (17) concentrations (5–500 μM), respectively. The reactions terminated by the addition of 200 μL of ice-cold methanol. Subsequently, samples were centrifuged at 15,000 × g for 30 min to collect the supernatant, and aliquots were analyzed by HPLC as described above. All experiments were performed in triplicate. The value of Km was calculated with the method of Lineweaver–Burk plot.
(§3) Site-saturation mutagenesis of AbCGT at residue 183 was performed by PCR using pET28a-AbCGT as a template and the corresponding degenerate primers, which are listed in Supplementary Table 5. PCR products were purified and transformed into Trans1-T1 (DE3) E. coli. The sequences of pET28a-AbCGT mutants were confirmed by sequencing, and transformed into Transetta (DE3) E. coli for heterologous expression following protein purification.

[4] = substrate: O=C1C[C@@](O)(c2ccc(O)cc2)Oc2cc(O)cc(O)c21; experiment: Kinetic parameters of AbCGT variant V183D; assay type: biochemical, Aloe barbadensis; details: other: V183D, UDP-Glc as donor; pH 7.4; 30.0 °C
Experimental: as §2, §3

inhibition at 10 µM (SGLT1): 98.4% | inhibition at 10 µM (SGLT2; HEK293, compound at 10 μM, read-out: SGLT2 inhibitory rates): 100% | SGLT2 inhibitory rates (SGLT2; compound at 10 μM, 10 µM): 102.4%
Molecule: CCOc1ccc(Cc2cc([C@@H]3O[C@H](CO)[C@@H](O)[C@H](O)[C@H]3O)ccc2Cl)cc1 [Dapagliflozin, reference compound]
OD505nm (nonfasting blood glucose) (alloxan-induced DM mice; 0h, alloxan-induced DM mice, single dose 46a 100 mg kg^‒1 or dapagliflozin 5 mg kg^‒1): 0.567 and 0.574 and 0.561 and 0.564 and 0.434 and 0.496 and 0.426 and 0.589 | OD505nm (nonfasting blood glucose) (alloxan-induced DM mice; 1h, same doses): 0.393 and 0.333 and 0.301 and 0.52 and 0.314 and 0.35 and 0.222 and 0.29 | OD505nm (nonfasting blood glucose) (alloxan-induced DM mice; 2h, same doses): 0.27 and 0.388 and 0.281 and 0.364 and 0.279 and 0.346 and 0.193 and 0.231 | OD505nm (nonfasting blood glucose) (alloxan-induced DM mice; 4h, same doses): 0.352 and 0.41 and 0.322 and 0.471 and 0.197 and 0.266 and 0.208 and 0.227 | OD505nm (nonfasting blood glucose) (alloxan-induced DM mice; 8h, same doses): 0.347 and 0.446 and 0.312 and 0.421 and 0.195 and 0.25 and 0.231 and 0.327 | OD505nm (nonfasting blood glucose) (alloxan-induced DM mice; 24h, same doses): 0.536 and 0.578 and 0.561 and 0.735 and 0.409 and 0.563 and 0.408 and 0.501 | OD505nm (nonfasting blood glucose) (alloxan-induced DM mice; 48h, same doses): 0.513 and 0.594 and 0.579 and 0.796 and 0.531 and 0.647 and 0.477 and 0.584 | blood glucose (KKAy mice [1]; 0h, KKAy mice, single dose 46a 100 mg kg^‒1 or dapagliflozin 5 mg kg^‒1): 376.7 mg/dL and 390 mg/dL and 405.5 mg/dL and 293.3 mg/dL and 575.6 mg/dL and 463.6 mg/dL and 388.1 mg/dL | blood glucose (KKAy mice [1]; 1h, same doses): 205.5 mg/dL and 228.8 mg/dL and 391.4 mg/dL and 363.9 mg/dL and 193.8 mg/dL and 248.6 mg/dL and 235.8 mg/dL | blood glucose (KKAy mice [1]; 2h, same doses): 279.3 mg/dL and 221.6 mg/dL and 285.4 mg/dL and 256 mg/dL and 184.4 mg/dL and 245.5 mg/dL and 256.8 mg/dL | blood glucose (KKAy mice [1]; 4h, same doses): 138 mg/dL and 102 mg/dL and 48.9 mg/dL and 98.1 mg/dL and 137.3 mg/dL and 182.3 mg/dL and 181.7 mg/dL | blood glucose (KKAy mice [1]; 6h, same doses): 123.1 mg/dL and 172.3 mg/dL and 164.6 mg/dL and 79.8 mg/dL and 177.1 mg/dL and 134.4 mg/dL | blood glucose (KKAy mice [1]; 8h, same doses): 91.6 mg/dL and 196.3 mg/dL and 150.5 mg/dL and 208.1 mg/dL and 124.9 mg/dL and 86.9 mg/dL | blood glucose (KKAy mice [1]; 24h, same doses): 254.9 mg/dL and 217.5 mg/dL and 176.2 mg/dL and 237.1 mg/dL and 286.9 mg/dL and 219.8 mg/dL | blood glucose (KKAy mice [1]; 48h, same doses): 395.7 mg/dL and 347.1 mg/dL and 229.8 mg/dL and 332.5 mg/dL and 388.1 mg/dL and 274.9 mg/dL | glucose in urine (KKAy mice [2]; 4h): 13936 mg/dL and 9326 mg/dL and 12440 mg/dL and 15728 mg/dL | glucose in urine (KKAy mice [2]; 6h): 15122 mg/dL and 8208 mg/dL and 11640 mg/dL and 11138 mg/dL | OD505nm (blood glucose, GOD assay) in OGTT (ICR mice; 0 min, ICR mice, oral 46a 100 mg kg^‒1 or dapagliflozin 5 mg kg^‒1): 0.188 and 0.144 and 0.165 and 0.159 and 0.17 and 0.15 and 0.177 and 0.146 | OD505nm (blood glucose, GOD assay) in OGTT (ICR mice; 15 min after glucose 2 g kg^‒1, oral 46a 100 mg kg^‒1 or dapagliflozin 5 mg kg^‒1): 0.243 and 0.23 and 0.198 and 0.207 and 0.185 and 0.182 and 0.211 and 0.199 | OD505nm (blood glucose, GOD assay) in OGTT (ICR mice; 30 min after glucose, same doses): 0.2 (2×) and 0.22 and 0.193 and 0.178 and 0.196 and 0.205 and 0.204 | OD505nm (blood glucose, GOD assay) in OGTT (ICR mice; 60 min after glucose, same doses): 0.209 and 0.178 and 0.176 and 0.169 and 0.175 and 0.171 and 0.182 and 0.185 | OD505nm (blood glucose, GOD assay) in OGTT (ICR mice; 120 min after glucose, same doses): 0.173 and 0.17 and 0.162 and 0.165 (2×) and 0.166 and 0.157 and 0.167

B1: AbCGT V183E (Aloe vera; V183E) (protein)
chain: MSNSGRPHVALLPSAGMGHLTPFCRLAALLSSRGGGDLDVSFITAEPTVSLKEYLQIRDLLSSFPSIKSHRFKVPELSPSQFPSSPDPFFQQWESIRRCAHLLPPLLASATALIIDTASASAVLPVAKQLNIPAYILFTSSASMLSLVAHFPSHVISSTSPSAPLMSNILIPGLKHPVPAAWEPPPLHVPGHIFSTLTVDNGRCLPEADGVIINTFDALEPEVLAALNGGRVAHGLPRVFAVGPLVAPPPPQQMEETGGGDYPIAWLDRQRDKSVVYVSFGSRTAMSPEQIRELAAGLERSGCSFLWVIKTKKVDRDEEETDLGALLGEGYVERVKGRGLVVNGWVEQEEILRHRAVGGFVSHCGWNSVTEAAVAGVRVLCWPRMGDQRLNAEVVRRSGVGVWMEEWSWEAEGGVVGGEEIGRRVKEMMEDEGLRDSAERVAEEARVALGVGGTSSKEMEEFISRIMMGS
Km [3]: 325.4 ± 19.2 µM | kcat/Km [3]: 0.0348 M⁻¹ s⁻¹

B2: AbCGT V183D (Aloe vera; V183D) (protein)
chain: MSNSGRPHVALLPSAGMGHLTPFCRLAALLSSRGGGDLDVSFITAEPTVSLKEYLQIRDLLSSFPSIKSHRFKVPELSPSQFPSSPDPFFQQWESIRRCAHLLPPLLASATALIIDTASASAVLPVAKQLNIPAYILFTSSASMLSLVAHFPSHVISSTSPSAPLMSNILIPGLKHPVPAAWDPPPLHVPGHIFSTLTVDNGRCLPEADGVIINTFDALEPEVLAALNGGRVAHGLPRVFAVGPLVAPPPPQQMEETGGGDYPIAWLDRQRDKSVVYVSFGSRTAMSPEQIRELAAGLERSGCSFLWVIKTKKVDRDEEETDLGALLGEGYVERVKGRGLVVNGWVEQEEILRHRAVGGFVSHCGWNSVTEAAVAGVRVLCWPRMGDQRLNAEVVRRSGVGVWMEEWSWEAEGGVVGGEEIGRRVKEMMEDEGLRDSAERVAEEARVALGVGGTSSKEMEEFISRIMMGS
Km [4]: 209.3 ± 14.3 µM | kcat/Km [4]: 0.0283 M⁻¹ s⁻¹
